Measured values from patent publication US20220315578A1, “BRD9 BIFUNCTIONAL DEGRADERS AND THEIR METHODS OF USE” (NOVARTIS AG, priority 2019, published 2022).

Target: T1, BRD9-GFP (Homo sapiens, UniProt Q9H8M2)
T1 construct: CHYSEL (2A cis-acting hydrolase element) remnant after GFP; mCherry is split off as a separate protein (C); expressed in transfected cells; host or cells: HEK293A cells (Invitrogen R70507), lentiviral transduction with pLenti6-BRD9-GFP-CHYSEL-mCherry, blasticidin selection
T1 sequence (Q9H8M2 1-597): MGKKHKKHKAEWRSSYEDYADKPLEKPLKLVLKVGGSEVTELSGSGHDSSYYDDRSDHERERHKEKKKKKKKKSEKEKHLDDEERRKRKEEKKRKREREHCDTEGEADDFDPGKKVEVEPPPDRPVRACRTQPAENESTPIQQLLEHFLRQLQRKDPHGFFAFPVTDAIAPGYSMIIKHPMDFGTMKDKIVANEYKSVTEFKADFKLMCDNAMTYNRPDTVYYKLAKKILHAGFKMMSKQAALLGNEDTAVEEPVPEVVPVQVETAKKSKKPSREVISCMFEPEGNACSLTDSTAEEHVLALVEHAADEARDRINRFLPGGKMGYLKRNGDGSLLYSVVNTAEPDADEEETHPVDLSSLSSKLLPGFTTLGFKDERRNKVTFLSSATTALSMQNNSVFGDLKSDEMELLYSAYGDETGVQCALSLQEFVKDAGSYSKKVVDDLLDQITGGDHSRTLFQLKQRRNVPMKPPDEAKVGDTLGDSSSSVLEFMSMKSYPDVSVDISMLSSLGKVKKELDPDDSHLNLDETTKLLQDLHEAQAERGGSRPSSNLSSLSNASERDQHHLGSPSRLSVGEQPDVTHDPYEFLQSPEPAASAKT
Assay: BRD9-GFP protein abundance flow cytometry assay in HEK293A cells
Format: cell-based
Conditions: HEK293A-BRD9-GFP-CHYSEL-mCherry cells; for BRD9 Deg Amax %: 24 h, % protein remaining at the concentration at which maximum degradation is seen; for DC50: 24 h at 37° C., 10-point 1:3 dilution, concentration at which 50% maximal degradation was observed
Outline: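 HEK293A cells stably express bicistronic BRD9-GFP-CHYSEL-mCherry and received 24 h treatment at 37° C with a 10-point, 3-fold dilution series from […], in 0.1% DMSO and duplicate. Median GFP/mCherry ratio of 5,000 single cells by flow cytometry, normalized to mCherry-only cells (0%) and DMSO (100%), gave DC50 and Amax (% protein remaining).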

BRD9 Deg Amax % [%]	DC50 [nM]	Compound
18.79	5	CCCCn1cc(-c2ccc(O[C@@H]3CCN(CC4CCN(CCn5cccc(CN6CCC(=O)NC6=O)c5=O)CC4)C[C@H]3F)c(F)c2)c2ccncc2c1=O [Compound E17, 1-((1-(2-(4-(((3R,4R)-4-(4-(2-butyl-1-oxo-1,2-dihydro-2,7-naphthyridin-4-yl)-2-fluorophenoxy)-3-fluoropiperidin-1-yl)methyl)piperidin-1-yl)ethyl)-2-oxo-1,2-dihydropyridin-3-yl)methyl)dihydropyrimidine-2,4(1H,3H)-dione]
16.66	19	Cn1cc(-c2cc(F)c(CN3CCC(OC4CCN(CCn5cccc(CN6CCC(=O)NC6=O)c5=O)CC4)CC3)c(F)c2)c2ccncc2c1=O [Compound E18, 1-((1-(2-(4-((1-(2,6-difluoro-4-(2-methyl-1-oxo-1,2-dihydro-2,7-naphthyridin-4-yl)benzyl)piperidin-4-yl)oxy)piperidin-1-yl)ethyl)-2-oxo-1,2-dihydropyridin-3-yl)methyl)dihydro-pyrimidine-2,4(1H,3H)-dione]
14.27	11	CCCn1cc(-c2cc(OC)c(CCN3CCC(OC4CCN(CCn5cccc(CN6CCC(=O)NC6=O)c5=O)CC4)CC3)c(OC)c2)c(C)c(C)c1=O [Compound E23, 1-((1-(2-(4-((1-(4-(4,5-dimethyl-6-oxo-1-propyl-1,6-dihydropyridin-3-yl)-2,6-dimethoxyphenethyl)piperidin-4-yl)oxy)piperidin-1-yl)ethyl)-2-oxo-1,2-dihydropyridin-3-yl)methyl)dihydropyrimidine-2,4(1H,3H)-dione]
17.08	42	COc1cc(-c2cn(C)c(=O)c3cnccc23)cc(F)c1CN1CCC(OC2CCN(CCn3cccc(CN4CCC(=O)NC4=O)c3=O)CC2)CC1 [Compound E24, 1-((1-(2-(4-((1-(2-fluoro-6-methoxy-4-(2-methyl-1-oxo-1,2-dihydro-2,7-naphthyridin-4-yl)benzyl)piperidin-4-yl)oxy)piperidin-1-yl)ethyl)-2-oxo-1,2-dihydropyridin-3-yl)methyl)dihydropyrimidine-2,4(1H,3H)-dione]
13.02	1	CCCCn1cc(-c2ccc(O[C@H]3CCN(CC4CCN(C(=O)COc5ccc(C)c(N6CCC(=O)NC6=O)c5)CC4)C[C@@H]3F)c(OC)c2)c2ccncc2c1=O [Compound E25, 1-(5-(2-(4-(((3S,4S)-4-(4-(2-Butyl-1-oxo-1,2-dihydro-2,7-naphthyridin-4-yl)-2-methoxyphenoxy)-3-fluoropiperidin-1-yl)methyl)piperidin-1-yl)-2-oxoethoxy)-2-methylphenyl)dihydropyrimidine-2,4(1H,3H)-dione]
22.28	33	Cn1cc(-c2cc(F)c(CCN3CCC(OC4CCN(CCn5cccc(CN6CCC(=O)NC6=O)c5=O)CC4)CC3)c(F)c2)c2ccncc2c1=O [Compound E27, 1-((1-(2-(4-((1-(2,6-difluoro-4-(2-methyl-1-oxo-1,2-dihydro-2,7-naphthyridin-4-yl)phenethyl)piperidin-4-yl)oxy)piperidin-1-yl)ethyl)-2-oxo-1,2-dihydropyridin-3-yl)methyl)dihydropyrimidine-2,4(1H,3H)-dione]
23.20	21	CCCCn1cc(-c2ccc(O[C@H]3CCN(CC4CCN(CCn5cccc(CN6CCC(=O)NC6=O)c5=O)CC4)C[C@@H]3F)cc2)c2ccncc2c1=O [Compound E28, 1-((1-(2-(4-(((3S,4S)-4-(4-(2-butyl-1-oxo-1,2-dihydro-2,7-naphthyridin-4-yl)phenoxy)-3-fluoropiperidin-1-yl)methyl)piperidin-1-yl)ethyl)-2-oxo-1,2-dihydropyridin-3-yl)methyl)dihydropyrimidine-2,4(1H,3H)-dione]
19.48	1	CCCCn1cc(-c2ccc(O[C@@H]3CCN(CC4CCN(C(=O)c5ccc(OC)c(N6CCC(=O)NC6=O)c5)CC4)C[C@H]3F)c(F)c2)c2ccncc2c1=O [Compound E29, 1-(5-(4-(((3R,4R)-4-(4-(2-butyl-1-oxo-1,2-dihydro-2,7-naphthyridin-4-yl)-2-fluorophenoxy)-3-fluoropiperidin-1-yl)methyl)piperidine-1-carbonyl)-2-methoxyphenyl)dihydropyrimidine-2,4(1H,3H)-dione]
11.19	3	Cn1cc(-c2cc(F)c(CN3CC[C@@H](OC4CCN(CCn5cccc(CN6CCC(=O)NC6=O)c5=O)CC4)[C@H](F)C3)c(F)c2)c2ccncc2c1=O [Compound E30, 1-((1-(2-(4-(((3R,4R)-1-(2,6-difluoro-4-(2-methyl-1-oxo-1,2-dihydro-2,7-naphthyridin-4-yl)benzyl)-3-fluoropiperidin-4-yl)oxy)piperidin-1-yl)ethyl)-2-oxo-1,2-dihydropyridin-3-yl)methyl)dihydro-pyrimidine-2,4(1H,3H)-dione]
16.43	1	CCCCn1cc(-c2ccc(O[C@H]3CCN(CC4CCN(C(=O)c5ccc(OC)c(N6CCC(=O)NC6=O)c5)CC4)C[C@@H]3F)cc2)c2ccncc2c1=O [Compound E31, 1-(5-(4-(((3S,4S)-4-(4-(2-butyl-1-oxo-1,2-dihydro-2,7-naphthyridin-4-yl)phenoxy)-3-fluoropiperidin-1-yl)methyl)piperidine-1-carbonyl)-2-meth-oxyphenyl)dihydro-pyrimidine-2,4(1H,3H)-dione]
17.58	1	CCCCn1cc(-c2ccc(O[C@H]3CCN(CC4CCN(C(=O)c5ccc(OC)c(N6CCC(=O)NC6=O)c5)CC4)C[C@@H]3F)c(OC)c2)c2ccncc2c1=O [Compound E32, 1-(5-(4-(((3S,4S)-4-(4-(2-Butyl-1-oxo-1,2-dihydro-2,7-naphthyridin-4-yl)-2-methoxyphenoxy)-3-fluoropiperidin-1-yl)methyl)piperidine-1-carbonyl)-2-methoxyphenyl)dihydropyrimidine-2,4(1H,3H)-dione]
14.29	5	CCCCn1cc(-c2cc(F)c(CN3CCC(OC4CCN(C(=O)c5ccc(OC)c(N6CCC(=O)NC6=O)c5)CC4)CC3)c(F)c2)c2ccncc2c1=O [Compound E33, 1-(5-(4-((1-(4-(2-butyl-1-oxo-1,2-dihydro-2,7-naphthyridin-4-yl)-2,6-difluorobenzyl)piperi-din-4-yl)oxy)piperi-dine-1-carbonyl)-2-methoxyphenyl)di-hydro-pyrimidine-2,4(1H,3H)-dione]
13.08	2	CCCCn1cc(-c2ccc(OC3CCN(CC4CCN(C(=O)c5ccc(OC)c(N6CCC(=O)NC6=O)c5)CC4)CC3)c(F)c2)c2ccncc2c1=O [Compound E34, 1-(5-(4-((4-(4-(2-butyl-1-oxo-1,2-dihydro-2,7-naphthyridin-4-yl)-2-fluorophenoxy)piperidin-1-yl)methyl)piperidine-1-carbonyl)-2-methoxyphenyl)dihydropyrimidine-2,4(1H,3H)-dione]
15.90	6	CCCCn1cc(-c2ccc(O[C@H]3CC[C@@H](OC4CCN(CCn5cccc(CN6CCC(=O)NC6=O)c5=O)CC4)CC3)cc2)c2ccncc2c1=O [Compound E35, 1-((1-(2-(4-(((cis)-4-(4-(2-butyl-1-oxo-1,2-dihydro-2,7-naphthyridin-4-yl)phenoxy)cyclohexyl)oxy)piperidin-1-yl)ethyl)-2-oxo-1,2-dihydropyridin-3-yl)methyl)dihydropyrimidine-2,4(1H,3H)-dione]
12.80	6	CCCCn1cc(-c2cc(OC)c(CN3CC[C@@H](OC4CCN(C(=O)c5ccc(OC)c(N6CCC(=O)NC6=O)c5)CC4)[C@H](F)C3)cc2OC)c2ccncc2c1=O [Compound E36, 1-(5-(4-(((3R,4R)-1-(4-(2-butyl-1-oxo-1,2-dihydro-2,7-naphthyridin-4-yl)-2,5-dimethoxybenzyl)-3-fluoropiperidin-4-yl)oxy)piperidine-1-carbonyl)-2-methoxyphenyl)dihydropyrimidine-2,4(1H,3H)-dione]

Compound	BRD9 Deg Amax % [%]	DC50 [nM]
CCCCn1cc(-c2ccc(O[C@H]3CCN(CC4CCN(CCOc5ccc(C)c(N6CCC(=O)NC6=O)c5)CC4)C[C@@H]3F)c(OC)c2)c2ccncc2c1=O [Compound E22, 1-(5-(2-(4-(((3S,4S)-4-(4-(2-butyl-1-oxo-1,2-dihydro-2,7-naphthyridin-4-yl)-2-methoxyphenoxy)-3-fluoropiperidin-1-yl)methyl)piperidin-1-yl)ethoxy)-2-methylphenyl)dihydropyrimidine-2,4(1H,3H)-dione]	39.25	34
